# According to PMC2955292 (Chemistry & biology, 2010):
# Several values for one entry are separate records, joined by “and”; a condition that tells them apart may be missing. Equal entries are not always repeated. Entries after “also recorded” stand apart in the source; their conditions may differ. Positions of bridges follow the written chain, without caps; N, C: chain ends. Non-standard residues stand in square brackets, D forms with d. Residues, ends and D or L forms follow the SMILES beside them. *: point of attachment. Octatrienoyl(2E,4E,6E) = C/C=C/C=C/C=C/C(=O)*; Pro(4R-Me) = C[C@H]1CN[C@H](C(=O)O)C1; NMeA = CN[C@@H](C)C(=O)O
# Experiments:
# [1] = test system: interaction between ClpP and ClpA; test: ClpP-ClpA interaction; type: binding, Escherichia coli; conditions: Figure S2
# ClpP N-terminal loop = test: Limited proteolysis of ClpP with Staphylococcus aureus protease V8; type: biochemical, Escherichia coli; conditions: presence vs absence of ADEP1; cleavage at Glu8 and Glu14; Figure S6
# E. coli ClpP [2] = target: T1, E. coli ClpP (Escherichia coli, UniProt P0A6G7); test: Crystal structure of ClpP-ADEP1 complex; type: binding
# T1 sequence (P0A6G7 15-207): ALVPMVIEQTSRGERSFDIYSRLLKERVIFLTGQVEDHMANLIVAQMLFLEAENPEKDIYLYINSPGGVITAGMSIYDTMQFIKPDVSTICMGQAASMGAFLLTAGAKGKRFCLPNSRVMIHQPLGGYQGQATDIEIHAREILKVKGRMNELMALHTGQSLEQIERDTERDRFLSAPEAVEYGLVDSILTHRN
# ClpP tetradecamer = test: Sedimentation velocity, oligomeric state of ClpP; design: species or system Escherichia coli
# ClpP = conditions: in the presence of ADEP1; ref Brotz-Oesterhelt et al., 2005; cited from earlier work
# E. coli ClpP [3] = target: T1, E. coli ClpP; conditions: Figure S1A, SDS-PAGE
# E. coli ClpP [4] = target: T1, E. coli ClpP
# E. coli ClpP [5] = target: T1, E. coli ClpP; test: Peptidase assay, oxidized insulin B chain; type: biochemical; conditions: 30-residue peptide; pH 8.0, 0.1 M KCl, 37 °C; Supplemental Table 1
# E. coli ClpP [6] = target: T1, E. coli ClpP; test: biochemical
# ClpPin [7] = test: Negative stain EM, translocation of EGFP-SsrA into ClpPin; type: biochemical, Escherichia coli; conditions: ADEP1 vs no compound, Figure S3B
# ClpPin [8] = test: Negative stain EM, translocation of β-casein into ClpPin; type: biochemical, Escherichia coli
smiles,measurement,setting,value
"C/C=C/C=C/C=C/C(=O)N[C@@H](Cc1ccccc1)C(=O)N[C@H]1COC(=O)[C@@H]2C[C@@H](C)CN2C(=O)[C@H](C)NC(=O)[C@H](C)N(C)C(=O)[C@@H]2CCCN2C1=O [ADEP1] ({Octatrienoyl(2E,4E,6E)}-FSP[NMeA]A[Pro(4R-Me)]; ester 2-C; N-terminus assumed)",interaction between ClpP and ClpA,[1],blocked interaction between ClpP and ClpA
same,limited proteolysis of ClpP by V8 protease,ClpP N-terminal loop,significantly slower
same,conformation of N-terminal loops on ADEP1 binding,E. coli ClpP [2],locks the N-terminal loops in an open β-hairpin conformation
same,rigid-body movement of ClpP monomer on ADEP1 binding,E. coli ClpP [2],1.5-2 Å
same,widening of interface between adjacent ClpP monomers,E. coli ClpP [2],about 1 Å
same,axial pore diameter of ClpP bound to ADEP1,"E. coli ClpP [2]; 1.9 Å, PDB 3MT6, apo 12 Å or less",~ 20 Å and 20 Å
same,binding site and contacts of ADEP1 on ClpP,E. coli ClpP [2]; Figure 5B,"binds in the hydrophobic groove that serves as the primary docking site for ClpP ATPases; also recorded: binds to a hydrophobic pocket on the outer edge of the apical surface of ClpP; also recorded: Tyr62 forms hydrogen bonds with both the phenylalanine and the alanine moieties of the compound; also recorded: the phenylalanine, β-methylproline and alanine moieties, as well as the aliphatic tail in ADEP1 are critical for binding, while the N-methylalanine and proline moieties have minimal interactions with the protein"
same,stoichiometry of ADEP1 binding,E. coli ClpP [2]; heptameric ring,one molecule of ADEP1 to each one of the seven hydrophobic clefts in the heptameric ring
same,effect on ClpP tetradecamer formation,ClpP tetradecamer,enhances rather than disrupts tetradecamer formation
same,degradation of EGFP-SsrA by ClpP,ClpP,not degraded
same,degradation of β-casein compared with ClpA and ATP,E. coli ClpP [3]; 37 °C,comparable to that observed when ClpA and ATP were present
same,pattern of β-casein degradation products (processivity),E. coli ClpP [3],generated numerous partially degraded products
same,activation of F-V cleavage compared with ClpA,"E. coli ClpP [4]; F-V 1 mM, ClpP 1 μg/ml, 10 μM ADEP1 vs ClpA 10 μg/ml with 1 mM ATPγS, 37 °C, pH 8.0",comparable to the allosteric activation seen with ClpA
same,activity of ClpP alone relative to activity with ADEP1 present,"E. coli ClpP [4]; F-V cleavage, 10 μM ADEP1, average of two separate experiments",~ 2%
same,cleavage of oxidized insulin β chain,E. coli ClpP [5],activated cleavage
same,EC50,E. coli ClpP [6],370 nM
same,"shift of particle intensity distribution, EGFP-SsrA",ClpPin [7],no significant differences
same,stain penetration into ClpPin without β-casein,"ClpPin [8]; ADEP1 alone, absence of β-casein, data not shown",did not prevent stain penetration into the ClpPin chamber
same,"shift of particle intensity distribution, β-casein translocation","ClpPin [8]; ClpPin, ADEP1 vs no compound, Figure S3A",significant shift of particles to higher intensity values
